Measurements published in patent publication US8044100B2, “Methods and compositions for treating amyloid-related diseases” (Bellus Health Inc., priority 2004, dated 2011).

System: Aβ peptides (Aβ40, Aβ42) in the plasma and brain of TgCRND8 mice
Assay: Long term treatment (8 or 16 weeks) in TgCRND8 mice: Aβ levels in plasma and brain
Type: in vivo, mouse
Details: for Brain Abeta40 insoluble / Brain Abeta40 soluble / Brain Abeta42 insoluble / Brain Abeta42 soluble / Plasma Abeta40 / Plasma Abeta42: BX subcutaneous, BW and BZ oral
Method: The long-term therapeutic effects of compounds of the present invention on cerebral amyloid deposition and β-amyloid (Aβ) levels in the plasma and in the brains of transgenic mice, TgCRND8, expressing the human amyloid precursor protein (hAPP) was studied. These compounds were administered over an 8 or 16 week period at the end of which the levels of Aβ peptides in the plasma and brain of TgCRND8 animals were determined. The goal of this study was to evaluate the efficacy of the compounds at modulating the progression of the amyloidogenic process in the brain and in the plasma of a transgenic mouse model of Alzheimer's disease (AD)
The mice used in the study consisted of animals bearing one copy of the hAPP gene (+/−) from the 2nd and 3rd generation progenies (N2 and N3) derived from backcrosses from TgCRND8.FVB(N2)AJ(N3) with B6AF1/J hybrid animals. • N1=TgCRND8.FVB(N2)AJ(N3)×B6AF1/J • N2=TgCRND8.FVB(N2)AJ(N3).B6AF1/J(N1)×B6AF1/J • N3=TgCRND8.FVB(N2)AJ(N3).B6AF1/J(N2)×B6AF1/J
The following abbreviations are used to designate these animals in the present study: TgCRND8.B6AF1/J(N2); TgCRND8.B6AF1/J(N3). Male and female transgenic mice were given daily subcutaneous (compound BX) or oral (compounds BW and BZ) administrations of the appropriate compounds for 8 or 16 weeks.
Baseline animals consisted of 9±1 week old naive TgCRND8.B6AF1/J animals from the 2nd and 3rd generations. These mice were used to determine the extent of cerebral amyloid deposits and Aβ levels in the plasma and brain of naive transgenic animals at the initiation of treatment.
Starting at 9 weeks of age (+1 week) animals received daily administration of their respective treatment for a period of 8 or 16 weeks, at a dose of 30 or 100 mg/kg at 10 ml/kg. The route of administration was subcutaneous for water-soluble compounds (Compound BX) and oral for compounds solubilized in methylcellulose 1% (MC 1%) (Compounds BW and BZ). At the end of the treatment periods, plasma and perfused brains were collected for quantification of Aβ levels.
Animal health was monitored, samples were collected and Aβ levels were measured as described above in the short term treatment study. Compounds were scored based on their ability to modulate levels of Aβ peptides in the plasma and the cerebral soluble/insoluble levels in the brain. Levels of Aβ observed in the plasma and brain of treated animals were compared to that of vehicle-treated (water) or methylcellulose-treated control groups and ranked according to the strength of the pharmacological effect. Increases in the levels of Aβ peptides are indicated using “+” symbols, while decreases in the levels of Aβ peptides are indicated using “−” symbols. The strongest effects are recorded as “+++” or “−−−” while the weakest are shown as “+” or “−”.
Specifically, increases in the levels of Aβ (relative to vehicle treated control) of 5 to 14% are scored as “+”; increases of 15 to 29% are scored as “++”; and increases of 30% or higher are scored as “+++”. Decreases in the levels of Aβ of 5 to 14% are scored as “−”; decreases of 15 to 29% are scored as “−−”; and decreases of 30% or more are scored as “−−−”. Additionally, changes of 4% or less in either direction are scored as “0”.

| SMILES | Brain Abeta40 insoluble (30 mg/kg daily, 8 wks) | Brain Abeta40 soluble (30 mg/kg daily, 8 wks) | Brain Abeta42 insoluble (30 mg/kg daily, 8 wks) | Brain Abeta42 soluble (30 mg/kg daily, 8 wks) | Plasma Abeta40 (30 mg/kg daily, 8 wks) | Plasma Abeta42 (30 mg/kg daily, 8 wks) | Brain Abeta40 insoluble (30 mg/kg daily, 16 wks) | Brain Abeta40 soluble (30 mg/kg daily, 16 wks) | Brain Abeta42 insoluble (30 mg/kg daily, 16 wks) | Brain Abeta42 soluble (30 mg/kg daily, 16 wks) | Plasma Abeta40 (30 mg/kg daily, 16 wks) | Plasma Abeta42 (30 mg/kg daily, 16 wks) | Brain Abeta40 insoluble (100 mg/kg daily, 8 wks) | Brain Abeta40 soluble (100 mg/kg daily, 8 wks) | Brain Abeta42 insoluble (100 mg/kg daily, 8 wks) | Brain Abeta42 soluble (100 mg/kg daily, 8 wks) | Plasma Abeta40 (100 mg/kg daily, 8 wks) | Plasma Abeta42 (100 mg/kg daily, 8 wks) | Brain Abeta40 insoluble (100 mg/kg daily, 16 wks) | Brain Abeta40 soluble (100 mg/kg daily, 16 wks) | also measured |
| --- | --- | --- | --- | --- | --- | --- | --- | --- | --- | --- | --- | --- | --- | --- | --- | --- | --- | --- | --- | --- | --- |
| O=S(=O)(O)CCCNC12CC3CC(CC(C3)C1)C2 [BW] | −− (decreases of 15 to 29%) | − (Decreases in the levels of Aβ of 5 to 14%) | 0 (changes of 4% or less in either direction) | −− (decreases of 15 to 29%) | −−− (decreases of 30% or more) | −−− (decreases of 30% or more) | ++ (increases of 15 to 29%) | + (increases in the levels of Aβ (relative to vehicle treated control) of 5 to 14%) | + (increases in the levels of Aβ (relative to vehicle treated control) of 5 to 14%) | − (Decreases in the levels of Aβ of 5 to 14%) | −− (decreases of 15 to 29%) | −− (decreases of 15 to 29%) | −−− (decreases of 30% or more) | −− (decreases of 15 to 29%) | −−− (decreases of 30% or more) | −− (decreases of 15 to 29%) | − (Decreases in the levels of Aβ of 5 to 14%) | − (Decreases in the levels of Aβ of 5 to 14%) | + (increases in the levels of Aβ (relative to vehicle treated control) of 5 to 14%) | ++ (increases of 15 to 29%) | Brain Abeta42 insoluble (100 mg/kg daily, 16 wks): ++ (increases of 15 to 29%); Brain Abeta42 soluble (100 mg/kg daily, 16 wks): + (increases in the levels of Aβ (relative to vehicle treated control) of 5 to 14%); Plasma Abeta40 (100 mg/kg daily, 16 wks): − (Decreases in the levels of Aβ of 5 to 14%); Plasma Abeta42 (100 mg/kg daily, 16 wks): − (Decreases in the levels of Aβ of 5 to 14%); brain and plasma levels of Aβ (at 8 weeks): dramatic decrease; plasma levels of Aβ (at 16 weeks): dramatic decrease |
| CC(C)(C)NCCCS(=O)(=O)O [BX, 3-(t-butyl)amino-1-propanesulfonic acid] | −−− (decreases of 30% or more) | −−− (decreases of 30% or more) | −− (decreases of 15 to 29%) | −−− (decreases of 30% or more) | + (increases in the levels of Aβ (relative to vehicle treated control) of 5 to 14%) | + (increases in the levels of Aβ (relative to vehicle treated control) of 5 to 14%) | −−− (decreases of 30% or more) | −− (decreases of 15 to 29%) | − (Decreases in the levels of Aβ of 5 to 14%) | 0 (changes of 4% or less in either direction) | − (Decreases in the levels of Aβ of 5 to 14%) | − (Decreases in the levels of Aβ of 5 to 14%) | ++ (increases of 15 to 29%) | + (increases in the levels of Aβ (relative to vehicle treated control) of 5 to 14%) | 0 (changes of 4% or less in either direction) | + (increases in the levels of Aβ (relative to vehicle treated control) of 5 to 14%) | ++ (increases of 15 to 29%) | +++ (increases of 30% or higher) | −−− (decreases of 30% or more) | − (Decreases in the levels of Aβ of 5 to 14%) | Brain Abeta42 insoluble (100 mg/kg daily, 16 wks): −− (decreases of 15 to 29%); Brain Abeta42 soluble (100 mg/kg daily, 16 wks): 0 (changes of 4% or less in either direction); Plasma Abeta40 (100 mg/kg daily, 16 wks): − (Decreases in the levels of Aβ of 5 to 14%); Plasma Abeta42 (100 mg/kg daily, 16 wks): 0 (changes of 4% or less in either direction); amount of Aβ in the brain (at both 8 and 16 weeks): dramatic decrease |
